Assay results taken from patent publication US10443081B2, “Methods for the expression of peptides and proteins” (Numaferm GmbH, priority 2013, dated 2019).
pKd: −log10 of the molar value. Where two headings read alike, the source gives them in different places.

Target: T1, HlyA1-IFABP fusion protein (encoded by pIAR_207, SEQ ID NO: 20; IFABP wt accession NP_037200) (Rattus norvegicus, UniProt P02693)
T1 construct: pIAR_207
Experiment: Fluorescence spectroscopy titration with DAUDA, refolded HlyA1-IFABP
Assay type: binding
Settings: 100 nM protein, 20 mM KH2PO4, 0.25 mM EDTA, pH 7.3, excitation 350 nm, emission 500 nm
Method: SEC analyses of refolded HlyA1-IFABP. A and C: SDS-PAGE gel of elution fractions from SEC analysis of HlyA1-IFABP refolded with Ca^2+ and elution chromatogram of the SEC. B and D: SDS-PAGE gel of elution fractions from SEC analysis of HlyA1-IFABP refolded with EDTA and elution chromatogram of the SEC. E: Purified HlyA1-IFABP in the presence of either Ca^2+ or EDTA were incubated with Factor Xa and protein samples were analyzed by SDS-PAGE at indicated time points. The arrow indicates the position of IFABP. F and G: Functional studies of HlyA1-IFABP using titration experiments with DAUDA. F: HlyA1-IFABP was refolded in the presence of Ca^2+ and purified by SEC. DAUDA was titrated to HlyA1-IFABP, the fluorescence signal at 500 nm was recorded and plotted against the DAUDA concentration. […]
11-(Dansylamino)undecanoic acid (DAUDA, Cayman Chemical) was prepared as a 1 mM stock solution in 50% isopropanol and 50% buffer (20 mM KH2PO4, 0.25 mM EDTA, pH 7.3) and further diluted to the appropriate concentrations with buffer. […] The fluorescence signal was recorded at a wavelength of 500 nm after excitation at 350 nm using a Fluorolog®-3 (Horiba) (Kim and Frieden (1998) Protein Sci, 7, 1821-1828). […] Fluorescence signals of DAUDA in buffer in the absence of protein was subtracted as background. The corrected and normalized fluorescence signals were plotted against the DAUDA concentration. […]

T1 sequence (P02693 1-132 with tags or gaps): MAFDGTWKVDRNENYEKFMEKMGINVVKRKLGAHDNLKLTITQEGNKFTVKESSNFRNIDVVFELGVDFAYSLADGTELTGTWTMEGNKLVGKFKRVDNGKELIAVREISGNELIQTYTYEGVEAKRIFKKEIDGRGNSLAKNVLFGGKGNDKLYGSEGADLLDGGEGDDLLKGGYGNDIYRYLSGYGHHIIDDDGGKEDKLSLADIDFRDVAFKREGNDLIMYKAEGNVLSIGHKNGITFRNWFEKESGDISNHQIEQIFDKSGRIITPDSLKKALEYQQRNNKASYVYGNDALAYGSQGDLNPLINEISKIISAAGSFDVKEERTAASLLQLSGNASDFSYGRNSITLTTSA

Compound `CN(C)c1cccc2c(S(=O)(=O)NCCCCCCCCCCC(=O)O)cccc12` [DAUDA, 11-(((5-(dimethylamino)-1-naphthalenyl)sulfonyl)amino)-undecanoic acid] has a pKd (refolded in the presence of Ca^2+, purified by SEC, read-out: KD for HlyA1-IFABP refolded in Ca^2+) of 6.85 and a pKd (refolded/purified in the presence of EDTA, read-out: KD for HlyA1-IFABP refolded in EDTA) of 6.58.
